US7576053B2, “Methods and compositions for treating degenerative bone disorders” (Rigel Pharmaceuticals, Inc., priority 2005, dated 2009)

Legend:
Assay type in all cases: in vivo
[1] = test system: rat collagen induced arthritis (CIA) model; test: Rat collagen induced arthritis (CIA) model, hindlimb radiographs scored blindly; details: b.i.d., 18 days of treatment
Source text: Data are the means±standard error, where n=13 per group, except for naïve (n=4). Radiographs of hindlimbs were obtained at the conclusion of the study and scored blindly. […] To examine effect of Syk inhibitor 2,4-pyrimidinediamine compound in preventing bone degeneration, a rat collagen induced arthritis model was used (see, e.g., WO 2004/014382, incorporated herein by reference). Rats were immunized with bovine collagen II on day 0 and boosted on day 7. […] Animals were subsequently treated b.i.d. with inhibitor compound or vehicle alone. After 18 days of treatment, hind paw bone structure and integrity were evaluated by X-rays, histopathology, and serum bone marker COMP.

[2] = test system: cartilage oligometrix matrix protein (COMP); test: Rat CIA model, serum bone marker COMP; details: FIG. 4
Description: (§1) To examine effect of Syk inhibitor 2,4-pyrimidinediamine compound in preventing bone degeneration, a rat collagen induced arthritis model was used (see, e.g., WO 2004/014382, incorporated herein by reference). Rats were immunized with bovine collagen II on day 0 and boosted on day 7. […] Animals were subsequently treated b.i.d. with inhibitor compound or vehicle alone. After 18 days of treatment, hind paw bone structure and integrity were evaluated by X-rays, histopathology, and serum bone marker COMP.

[3] = test system: rat collagen induced arthritis (CIA) model; test: Rat CIA model, histopathology of hind paw bone sections (safranin-O)
Source text: as §1, with “Upper left—naïve rat; upper right—vehicle rat; lower left—vehicle rat; lower right—compound 1007 treated rat. Micrographs are safranin-O stained sections of hind ankle paws of CIA rats, magnification 40×. To” for “To”

Structure (SMILES): COc1cc(Nc2ncc(F)c(Nc3ccc4c(n3)NC(=O)C(C)(C)O4)n2)cc(OC)c1OC [compound 1007, N4-(2,2-dimethyl-3-oxo-4H-5-pyrid[1,4]oxazin-6-yl)-5-fluoro-N2-(3,4,5-trimethoxyphenyl)-2,4-pyrimidinediamine]
- bone erosion (radiograph score of hind paws) ([1]; 10 mg/kg, p<0.05): significant reduction in bone erosion
- bone erosion (radiograph score of hind paws) ([1]; 30 mg/kg, p<0.001): significant reduction in bone erosion
- serum levels of cartilage oligometrix matrix protein (COMP), a marker for collagen destruction [2]: reduction
- severity of bone destruction (histopathological assessment of bone sections) ([3]; FIG. 2): significant reduction in severity of bone destruction
- bone erosion (safranin-O stained sections of hind ankle paws) ([3]; FIG. 3, magnification 40x): reduction
- osteoclast activity (safranin-O stained sections of hind ankle paws) ([3]; FIG. 3, magnification 40x): reduction
- pannus formation (safranin-O stained sections of hind ankle paws) ([3]; FIG. 3, magnification 40x): reduction
